Reference: patent US20090042849A1, “Phosphorylation of 5-lipoxygenase at ser523 and uses thereof” (priority 2006, published 2009)
Entries after “also recorded” stand apart in the source; their conditions may differ.

Experiments:
5LO = assay: immunofluorescence of 5LO in adult rat cardiomyocyte cultures; type: cell-based; details: PIO 10 μM, ATV 10 μM, H-89 0.1 μM, 12 hours
Experimental: (§1) Cardiac myocytes were isolated from adult Sprague-Dawley rats (250-300 g, male). Animals were heparinized (1,000-2,000 units i.p.) 5 min before being anesthetized with ketamine (100 mg/kg) and xylazine (10 mg/kg), and the hearts were removed and placed in ice-cold heart media solution (in mmol/l: 112 NaCl, 5.4 KCl, 1 MgCl2, 9 NaH2PO4, and 11.1 D-glucose; supplemented with 10 HEPES, 30 taurine, 2 DL-carnitine, and 2 creatine, pH. 7.4). The hearts were perfused retrogradely in a Langendorff apparatus with Ca^2+-free heart media for 5 min at 5 ml/min at 37° C., followed by perfusion with Ca^2+-free heart media containing collagenase II, 210 U/mg (Worthington, Lakewood, N.J.) for 20 min. After perfusion, both ventricles were removed from the heart and minced in collagenase II-containing heart media for 10-15 min. The cell solution was then washed several times to remove collagenase II and reexposed to 1.2 mM Ca2^+ over 25 min to produce Ca2^+-tolerant cardiac myocytes. […]
Immunofluorescent labeling was performed on paraffin sections (5-μm) of 4% formaldehyde-fixed rat cardiac tissue, as described previously (22). […] All the slides were viewed under an Olympus BX51 microscope [images recorded by a DP70 Digital camera (Olympus Optical Co., Ltd., Tokyo, Japan)] or confocal microscope (Bio-Rad 2100 (Hercules, Calif.).

LTB4 = LTB4 levels in adult rat cardiac myocytes (ELISA); type: cell-based; details: PIO 10 μM, ATV 10 μM, H-89 0.1 μM, 12 hours
Experimental: as §1, with “myocytes. Myocytes were then plated in 4% FBS on laminin (2 μg/cm^2)-coated plates for 1 h and incubated at 37° C. in 5% CO2 for 12-24 h before experiments (21). Cells were incubated with 1) vehicle (0.07% ethanol); 2) PIO (10 μM)+ATV (10 μM); 3) H-89 (0.1 μM); or 4) PIO+ATV+H-89 for 12 hours. The supernatants were collected directly for LTB4 analyses by ELISA and the cells were harvested for immunoblotting.” for “myocytes.”

[1] = test system: 5LO interaction with COX2 / cPLA2; assay: co-immunoprecipitation of 5LO with COX2 and cPLA2 in rat hearts; type: in vivo
Experimental: Rats received: 1) PIO (10 mg/kg/d); 2) ATV (10 mg/kg/d); 3) PIO (10 mg/kg/d)+H89 (20 mg/kg); 4) ATV (10 mg/kg/d)+H89 (20 mg/kg); 5) H89 (20 mg/kg) or 6) water alone (control). PIO and ATV were suspended in water and administered by gastric gavage once daily for 3 days; H-89 was dissolved in DMSO (final concentration 5% v/v) and injected intraperitoneally on the third day. Rats in groups 5 and 6 received water by gastric gavage once daily for 3 days. Rats in groups 1, 2 and 6 received intraperitoneal inkection of DMSO 5%. Sixteen hours after the injection, rats were euthanized and the hearts explanted for further analyses. In another experiment, rats received 3-day pretreatment with: 1) water (sham); 2) PIO (10 mg/kg/d); 3) ATV (10 mg/kg/d); 4) PIO (10 mg/kg/d)+ATV (10 mg/kg/d); or 5) LPS (10 mg/kg).
For co-immunoprecipitation, myocardial cytosolic, membranous and nuclear fractions (500 μg) were incubated with anti-5LO antibodies for 4 h followed by overnight incubation at 4° C. with Protein-A-Agarose. The agarose beads were collected by centrifugation and SDS/PAGE Western immunoblotting was performed with the supernatant fraction. The anti-5LO precipitates were subjected to immunoblotting with anti-COX2 or anti-cPLA2 antibodies.

rat infarct model = assay: rat infarct model, infarct size; type: in vivo; details: ATV 2 mg/kg/d, cilostazol 20 mg/kg/d, alone or combined
Experimental: The effects of cilostazol (Pletal) and atorvastatin on myocardial protection was measured in a rat infarct model. Pletal is a phosphodiesterase III inhibitor, thus increasing intracellular cAMP levels. cAMP activates PKA. ATV at 2 mg/kg/d had no effect. Cilostazol 20 mg/kg/d reduced infarct size. However, when combined with ATV 2 mg/kg/d the effect was much greater. There are 8 rats in the control and ATV 2 mg/kg/d groups and 6 rats in the cilostazol and the combination groups. Infarct size in the ATV 2 mg/kg/d (30.48±1.46%) is not different from the controls (33.97±2.76%).

Compound	5LO expression and localization in cardiomyocytes (5LO)	LTB4 levels (LTB4)	fraction in which the co-immunoprecipitation with 5LO occurred ([1]; cytosolic and membranous fractions)	co-immunoprecipitation of COX2 or cPLA2 with 5LO ([1]; whole cell lysate)	Infarct size (rat infarct model) [%]	effect on infarct size (in words) (rat infarct model)
O=S(=O)(NCCNC/C=C/c1ccc(Br)cc1)c1cccc2cnccc12 [H-89]	no effect	no significant effect				
CC(C)c1c(C(=O)Nc2ccccc2)c(-c2ccccc2)c(-c2ccc(F)cc2)n1CCC(O)CC(O)CC(=O)O (stereo not drawn) [ATV, 7-[2-(4-fluorophenyl)-5-(1-methylethyl)-3-phenyl-4-(phenylcarbamoyl)-1H-pyrrol-1-yl]-3,5-dihydroxy-heptanoic acid]			in the cytosolic, but not the membranous fraction; also recorded: only in the cytosolic fraction	5LO precipitated with COX2 and COX2, but not cPLA2, precipitated with 5LO	30.48±1.46	no effect
